# Test results: ChEMBL document CHEMBL1155237, “Selective inhibitors of the mutant B-Raf pathway: discovery of a potent and orally bioavailable aminoisoquinoline” (J Med Chem, 2009)
# Columns and labels:
# [1] = target: Serine/threonine-protein kinase 3 (Homo sapiens) (UniProt Q13188); assay: Inhibition of MST2 assessed as enzyme activity at 1 uM relative to untreated control; design: scale not given: the % may be the effect or the level left
# [2] = target: Wee1-like protein kinase 2 (Homo sapiens) (UniProt P0C1S8); assay: Inhibition of WEE2 assessed as enzyme activity at 1 uM relative to untreated control; design: scale not given: the % may be the effect or the level left
# [3] = test system: Tyrosine-protein kinase ABL1 (Homo sapiens), P00519 [F317I]; assay: Inhibition of ABL1 F317I mutant assessed as enzyme activity at 1 uM relative to untreated control; design: scale not given: the % may be the effect or the level left
# [4] = target: Fibroblast growth factor receptor 4 (Homo sapiens) (UniProt P22455); assay: Inhibition of FGFR4 assessed as enzyme activity at 1 uM relative to untreated control; design: scale not given: the % may be the effect or the level left
# [5] = target: Tyrosine-protein kinase JAK1 (Homo sapiens) (UniProt P23458); assay: Inhibition of JAK1 kinase domain 2 assessed as enzyme activity at 1 uM relative to untreated control; design: scale not given: the % may be the effect or the level left
# [6] = target: Calcium/calmodulin-dependent protein kinase kinase 2 (Homo sapiens) (UniProt Q96RR4); assay: Inhibition of CAMKK2 assessed as enzyme activity at 1 uM relative to untreated control; design: scale not given: the % may be the effect or the level left
# [7] = target: Tyrosine-protein kinase Lyn (Homo sapiens) (UniProt P07948); assay: Inhibition of LYN assessed as enzyme activity at 1 uM relative to untreated control; design: scale not given: the % may be the effect or the level left
# [8] = target: Ribosomal protein S6 kinase alpha-1 (Homo sapiens) (UniProt Q15418); assay: Inhibition of RPS6KA1 kinase domain 2 assessed as enzyme activity at 1 uM relative to untreated control; design: scale not given: the % may be the effect or the level left
# [9] = target: Mitogen-activated protein kinase 11 (Homo sapiens) (UniProt Q15759); assay: Inhibition of p38beta assessed as enzyme activity at 1 uM relative to untreated control; design: scale not given: the % may be the effect or the level left
# [10] = target: Tyrosine-protein kinase receptor TYRO3 (Homo sapiens) (UniProt Q06418); assay: Inhibition of TYRO3 assessed as enzyme activity at 1 uM relative to untreated control; design: scale not given: the % may be the effect or the level left
# Sequence of Tyrosine-protein kinase receptor TYRO3 (Homo sapiens) (Q06418 whole entry): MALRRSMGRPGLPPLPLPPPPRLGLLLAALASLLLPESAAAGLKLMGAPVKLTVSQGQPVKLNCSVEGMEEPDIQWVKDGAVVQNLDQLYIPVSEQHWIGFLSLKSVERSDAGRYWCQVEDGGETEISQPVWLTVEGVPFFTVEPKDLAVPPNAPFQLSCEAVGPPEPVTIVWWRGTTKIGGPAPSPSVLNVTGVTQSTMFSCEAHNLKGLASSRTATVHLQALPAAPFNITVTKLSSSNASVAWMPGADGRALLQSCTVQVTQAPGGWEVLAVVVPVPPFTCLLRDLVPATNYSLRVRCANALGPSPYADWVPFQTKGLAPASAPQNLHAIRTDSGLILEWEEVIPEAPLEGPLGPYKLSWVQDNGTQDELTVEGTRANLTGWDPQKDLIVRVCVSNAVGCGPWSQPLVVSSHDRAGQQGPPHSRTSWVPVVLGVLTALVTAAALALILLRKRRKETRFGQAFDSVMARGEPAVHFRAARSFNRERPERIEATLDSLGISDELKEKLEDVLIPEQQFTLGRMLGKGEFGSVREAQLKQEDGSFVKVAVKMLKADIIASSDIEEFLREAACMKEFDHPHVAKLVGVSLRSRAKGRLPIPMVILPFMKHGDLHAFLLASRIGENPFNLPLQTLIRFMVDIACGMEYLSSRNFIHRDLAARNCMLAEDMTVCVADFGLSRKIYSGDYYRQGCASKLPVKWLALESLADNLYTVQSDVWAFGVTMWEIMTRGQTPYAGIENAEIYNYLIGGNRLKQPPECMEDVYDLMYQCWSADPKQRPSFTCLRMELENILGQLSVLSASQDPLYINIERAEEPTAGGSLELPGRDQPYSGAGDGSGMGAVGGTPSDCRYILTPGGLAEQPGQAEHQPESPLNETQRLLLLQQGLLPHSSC
# [11] = test system: Receptor-type tyrosine-protein kinase FLT3 (Homo sapiens), P36888 [N841I]; assay: Inhibition of FLT3 N841I mutant assessed as enzyme activity at 1 uM relative to untreated control; design: scale not given: the % may be the effect or the level left
# [12] = target: MAP/microtubule affinity-regulating kinase 4 (Homo sapiens) (UniProt Q96L34); assay: Inhibition of MARK4 assessed as enzyme activity at 1 uM relative to untreated control; design: scale not given: the % may be the effect or the level left
# Sequence of MAP/microtubule affinity-regulating kinase 4 (Homo sapiens) (Q96L34 whole entry): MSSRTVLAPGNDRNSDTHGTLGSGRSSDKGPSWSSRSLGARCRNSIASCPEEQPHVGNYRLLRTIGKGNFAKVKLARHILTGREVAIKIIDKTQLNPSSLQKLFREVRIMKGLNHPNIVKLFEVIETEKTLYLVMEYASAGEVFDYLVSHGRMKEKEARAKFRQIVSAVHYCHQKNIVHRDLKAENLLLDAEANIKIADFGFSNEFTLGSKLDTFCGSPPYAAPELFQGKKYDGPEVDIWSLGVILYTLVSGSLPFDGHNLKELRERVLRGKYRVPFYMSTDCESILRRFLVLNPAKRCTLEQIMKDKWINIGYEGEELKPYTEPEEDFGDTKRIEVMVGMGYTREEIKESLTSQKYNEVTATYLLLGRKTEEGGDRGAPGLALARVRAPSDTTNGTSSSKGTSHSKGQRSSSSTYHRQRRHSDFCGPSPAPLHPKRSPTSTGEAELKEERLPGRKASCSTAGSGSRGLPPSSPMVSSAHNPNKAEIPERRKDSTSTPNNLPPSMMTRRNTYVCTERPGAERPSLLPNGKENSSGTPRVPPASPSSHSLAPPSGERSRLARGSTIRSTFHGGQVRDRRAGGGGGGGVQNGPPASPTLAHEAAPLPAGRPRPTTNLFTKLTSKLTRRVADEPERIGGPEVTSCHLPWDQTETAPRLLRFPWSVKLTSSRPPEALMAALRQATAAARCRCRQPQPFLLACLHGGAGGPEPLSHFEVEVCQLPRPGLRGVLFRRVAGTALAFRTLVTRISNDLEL
# [13] = target: Bone morphogenetic protein receptor type-2 (Homo sapiens) (UniProt Q13873); assay: Inhibition of BMPR2 assessed as enzyme activity at 1 uM relative to untreated control; design: scale not given: the % may be the effect or the level left
# Sequence of Bone morphogenetic protein receptor type-2 (Homo sapiens) (Q13873 whole entry): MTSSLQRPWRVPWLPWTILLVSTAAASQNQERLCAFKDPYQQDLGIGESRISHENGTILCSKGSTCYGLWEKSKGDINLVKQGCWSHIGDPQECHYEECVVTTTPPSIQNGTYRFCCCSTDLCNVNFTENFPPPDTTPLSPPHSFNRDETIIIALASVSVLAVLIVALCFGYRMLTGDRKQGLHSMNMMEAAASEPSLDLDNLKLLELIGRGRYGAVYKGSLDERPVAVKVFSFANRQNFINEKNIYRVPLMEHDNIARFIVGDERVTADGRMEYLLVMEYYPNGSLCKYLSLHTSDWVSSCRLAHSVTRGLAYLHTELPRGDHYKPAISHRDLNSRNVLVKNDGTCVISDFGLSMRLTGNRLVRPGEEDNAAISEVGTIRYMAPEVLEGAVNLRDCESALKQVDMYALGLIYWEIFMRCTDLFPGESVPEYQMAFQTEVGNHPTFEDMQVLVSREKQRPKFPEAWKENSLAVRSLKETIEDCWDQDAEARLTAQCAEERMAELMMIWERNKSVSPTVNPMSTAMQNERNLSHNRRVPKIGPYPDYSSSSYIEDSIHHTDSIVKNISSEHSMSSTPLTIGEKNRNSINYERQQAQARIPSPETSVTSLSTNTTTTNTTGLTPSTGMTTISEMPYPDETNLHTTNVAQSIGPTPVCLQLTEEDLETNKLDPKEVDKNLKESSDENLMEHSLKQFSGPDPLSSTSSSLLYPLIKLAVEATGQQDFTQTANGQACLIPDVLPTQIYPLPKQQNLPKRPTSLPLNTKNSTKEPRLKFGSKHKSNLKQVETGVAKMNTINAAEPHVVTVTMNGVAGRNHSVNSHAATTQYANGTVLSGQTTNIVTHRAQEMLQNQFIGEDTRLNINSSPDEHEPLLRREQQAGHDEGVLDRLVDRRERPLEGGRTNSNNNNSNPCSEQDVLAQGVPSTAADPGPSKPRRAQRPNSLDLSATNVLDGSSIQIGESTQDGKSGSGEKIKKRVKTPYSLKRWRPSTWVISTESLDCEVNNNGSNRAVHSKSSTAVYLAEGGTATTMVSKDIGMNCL
# [14] = target: Proto-oncogene tyrosine-protein kinase receptor Ret (Homo sapiens) (UniProt P07949); assay: Inhibition of RET assessed as enzyme activity at 1 uM relative to untreated control; design: scale not given: the % may be the effect or the level left
# [15] = target: Tyrosine-protein kinase Fgr (Homo sapiens) (UniProt P09769); assay: Inhibition of FGR assessed as enzyme activity at 1 uM relative to untreated control; design: scale not given: the % may be the effect or the level left
# [16] = target: Insulin-like growth factor 1 receptor (Homo sapiens) (UniProt P08069); assay: Inhibition of IGF1R assessed as enzyme activity at 1 uM relative to untreated control; design: scale not given: the % may be the effect or the level left
# [17] = target: Dual specificity mitogen-activated protein kinase kinase 3 (Homo sapiens) (UniProt P46734); assay: Inhibition of MEK3 assessed as enzyme activity at 1 uM relative to untreated control; design: scale not given: the % may be the effect or the level left
# [18] = target: Mitogen-activated protein kinase kinase kinase 3 (Homo sapiens) (UniProt Q99759); assay: Inhibition of MAP3K3 assessed as enzyme activity at 1 uM relative to untreated control; design: scale not given: the % may be the effect or the level left
# [19] = target: AP2-associated protein kinase 1 (Homo sapiens) (UniProt Q2M2I8); assay: Inhibition of AAK1 assessed as enzyme activity at 1 uM relative to untreated control; design: scale not given: the % may be the effect or the level left
# [20] = target: Casein kinase II subunit alpha' (Homo sapiens) (UniProt P19784); assay: Inhibition of CSNK2A2 assessed as enzyme activity at 1 uM relative to untreated control; design: scale not given: the % may be the effect or the level left
# [21] = test system: Epidermal growth factor receptor (Homo sapiens), P00533 [L861Q]; assay: Inhibition of EGFR L861Q mutant assessed as enzyme activity at 1 uM relative to untreated control; assay type: protein assay; design: scale not given: the % may be the effect or the level left
# [22] = target: Platelet-derived growth factor receptor beta (Homo sapiens) (UniProt P09619); assay: Inhibition of PDGFRB assessed as enzyme activity at 1 uM relative to untreated control; design: scale not given: the % may be the effect or the level left
# [23] = target: Tyrosine-protein kinase FRK (Homo sapiens) (UniProt P42685); assay: Inhibition of FRK assessed as enzyme activity at 1 uM relative to untreated control; design: scale not given: the % may be the effect or the level left
# Sequence of Tyrosine-protein kinase FRK (Homo sapiens) (P42685 whole entry): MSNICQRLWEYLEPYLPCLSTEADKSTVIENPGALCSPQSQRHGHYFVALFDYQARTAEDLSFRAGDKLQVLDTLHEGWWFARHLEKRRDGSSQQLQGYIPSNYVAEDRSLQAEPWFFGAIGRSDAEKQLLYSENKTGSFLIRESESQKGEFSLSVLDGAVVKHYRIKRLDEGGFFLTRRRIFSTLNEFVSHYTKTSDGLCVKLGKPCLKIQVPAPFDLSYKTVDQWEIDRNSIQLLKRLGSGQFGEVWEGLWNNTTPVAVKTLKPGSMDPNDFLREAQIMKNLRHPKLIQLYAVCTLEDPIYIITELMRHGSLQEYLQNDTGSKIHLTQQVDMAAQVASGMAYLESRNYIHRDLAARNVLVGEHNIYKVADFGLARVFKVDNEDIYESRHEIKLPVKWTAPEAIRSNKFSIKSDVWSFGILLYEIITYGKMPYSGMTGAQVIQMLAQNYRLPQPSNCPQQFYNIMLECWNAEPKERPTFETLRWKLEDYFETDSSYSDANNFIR
# [24] = target: Mitogen-activated protein kinase 1 (Homo sapiens) (UniProt P28482); assay: Inhibition of ERK2 assessed as enzyme activity at 1 uM relative to untreated control; design: scale not given: the % may be the effect or the level left
# [25] = test system: Receptor-type tyrosine-protein kinase FLT3 (Homo sapiens), P36888 [D835Y]; assay: Inhibition of FLT3 D835Y mutant assessed as enzyme activity at 1 uM relative to untreated control; design: scale not given: the % may be the effect or the level left
# [26] = target: Rho-associated protein kinase 2 (Homo sapiens) (UniProt O75116); assay: Inhibition of ROCK2 assessed as enzyme activity at 1 uM relative to untreated control; design: scale not given: the % may be the effect or the level left
# [27] = target: Serine/threonine-protein kinase NLK (Homo sapiens) (UniProt Q9UBE8); assay: Inhibition of NLK assessed as enzyme activity at 1 uM relative to untreated control; design: scale not given: the % may be the effect or the level left
# [28] = target: Ribosomal protein S6 kinase alpha-5 (Homo sapiens) (UniProt O75582); assay: Inhibition of RPS6KA5 kinase domain 1 assessed as enzyme activity at 1 uM relative to untreated control; design: scale not given: the % may be the effect or the level left
# [29] = target: SRSF protein kinase 2 (Homo sapiens) (UniProt P78362); assay: Inhibition of SRPK2 assessed as enzyme activity at 1 uM relative to untreated control; design: scale not given: the % may be the effect or the level left
# [30] = target: Insulin receptor (Homo sapiens) (UniProt P06213); assay: Inhibition of INSR assessed as enzyme activity at 1 uM relative to untreated control; design: scale not given: the % may be the effect or the level left
# [31] = target: Vascular endothelial growth factor receptor 2 (Homo sapiens, UniProt P35968); assay: Inhibition of KDR
# [32] = target: Mitogen-activated protein kinase 8 (Homo sapiens) (UniProt P45983); assay: Inhibition of JNK1 assessed as enzyme activity at 1 uM relative to untreated control; design: scale not given: the % may be the effect or the level left
# [33] = target: LIM domain kinase 2 (Homo sapiens) (UniProt P53671); assay: Inhibition of LIMK2 assessed as enzyme activity at 1 uM relative to untreated control; design: scale not given: the % may be the effect or the level left
# [34] = target: Mitogen-activated protein kinase 9 (Homo sapiens) (UniProt P45984); assay: Inhibition of JNK2 assessed as enzyme activity at 1 uM relative to untreated control; design: scale not given: the % may be the effect or the level left
# Sequence of Mitogen-activated protein kinase 9 (Homo sapiens) (P45984 whole entry, looked up, canonical isoform): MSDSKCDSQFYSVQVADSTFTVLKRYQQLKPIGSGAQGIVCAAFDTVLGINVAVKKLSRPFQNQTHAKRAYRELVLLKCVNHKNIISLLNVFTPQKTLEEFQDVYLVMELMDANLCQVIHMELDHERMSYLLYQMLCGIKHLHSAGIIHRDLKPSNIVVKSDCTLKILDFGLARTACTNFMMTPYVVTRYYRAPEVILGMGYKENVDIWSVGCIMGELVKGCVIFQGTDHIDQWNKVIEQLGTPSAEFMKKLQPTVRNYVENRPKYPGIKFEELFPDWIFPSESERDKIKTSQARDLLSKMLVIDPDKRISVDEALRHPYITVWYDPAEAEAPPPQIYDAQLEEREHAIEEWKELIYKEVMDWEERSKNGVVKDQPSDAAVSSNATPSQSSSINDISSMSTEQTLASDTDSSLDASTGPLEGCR
# [35] = target: Phosphatidylinositol 4,5-bisphosphate 3-kinase catalytic subunit gamma isoform (Homo sapiens) (UniProt P48736); assay: Inhibition of PIK3CG assessed as enzyme activity at 1 uM relative to untreated control; design: scale not given: the % may be the effect or the level left
# [36] = target: Non-receptor tyrosine-protein kinase TNK1 (Homo sapiens) (UniProt Q13470); assay: Inhibition of TNK1 assessed as enzyme activity at 1 uM relative to untreated control; design: scale not given: the % may be the effect or the level left
# [37] = target: Vascular endothelial growth factor receptor 3 (Homo sapiens) (UniProt P35916); assay: Inhibition of FLT4 assessed as enzyme activity at 1 uM relative to untreated control; design: scale not given: the % may be the effect or the level left
# Sequence of Vascular endothelial growth factor receptor 3 (Homo sapiens) (P35916 whole entry): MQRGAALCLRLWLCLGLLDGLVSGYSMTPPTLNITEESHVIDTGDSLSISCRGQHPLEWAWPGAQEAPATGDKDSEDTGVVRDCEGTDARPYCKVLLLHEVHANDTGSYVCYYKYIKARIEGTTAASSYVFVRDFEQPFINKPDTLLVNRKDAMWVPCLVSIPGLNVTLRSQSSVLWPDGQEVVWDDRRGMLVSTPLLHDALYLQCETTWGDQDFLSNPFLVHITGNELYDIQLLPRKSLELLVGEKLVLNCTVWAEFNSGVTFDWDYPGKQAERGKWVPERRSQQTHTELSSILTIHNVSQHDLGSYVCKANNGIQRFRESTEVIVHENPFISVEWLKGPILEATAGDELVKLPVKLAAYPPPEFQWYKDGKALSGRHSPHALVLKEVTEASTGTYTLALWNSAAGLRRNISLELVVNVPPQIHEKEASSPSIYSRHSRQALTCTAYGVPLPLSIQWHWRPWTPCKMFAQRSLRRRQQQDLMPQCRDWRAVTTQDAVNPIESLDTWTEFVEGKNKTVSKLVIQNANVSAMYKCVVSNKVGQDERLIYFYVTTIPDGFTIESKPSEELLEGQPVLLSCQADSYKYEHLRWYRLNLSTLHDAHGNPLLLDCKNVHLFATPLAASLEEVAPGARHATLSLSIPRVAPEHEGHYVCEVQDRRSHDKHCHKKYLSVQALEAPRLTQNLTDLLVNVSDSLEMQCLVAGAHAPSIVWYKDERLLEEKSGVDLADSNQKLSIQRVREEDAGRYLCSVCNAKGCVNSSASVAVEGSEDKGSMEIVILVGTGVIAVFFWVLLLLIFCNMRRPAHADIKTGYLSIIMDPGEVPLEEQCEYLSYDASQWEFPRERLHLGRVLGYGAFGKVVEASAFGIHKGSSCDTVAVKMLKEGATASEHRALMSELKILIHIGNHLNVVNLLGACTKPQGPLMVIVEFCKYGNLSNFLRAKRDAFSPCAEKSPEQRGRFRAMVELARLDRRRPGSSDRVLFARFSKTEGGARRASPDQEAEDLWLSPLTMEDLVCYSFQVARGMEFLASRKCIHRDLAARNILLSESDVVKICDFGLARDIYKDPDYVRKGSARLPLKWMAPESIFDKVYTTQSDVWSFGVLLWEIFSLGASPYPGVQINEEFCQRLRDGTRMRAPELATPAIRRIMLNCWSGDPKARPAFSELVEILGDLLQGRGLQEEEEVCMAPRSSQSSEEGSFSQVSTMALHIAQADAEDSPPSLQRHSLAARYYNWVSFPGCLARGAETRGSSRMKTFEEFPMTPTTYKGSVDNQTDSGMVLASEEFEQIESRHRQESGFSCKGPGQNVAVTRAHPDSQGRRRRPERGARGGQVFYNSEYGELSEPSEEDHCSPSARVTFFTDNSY
smiles,measurement,setting,value
Cc1ccc2c(Nc3ccc(Cl)cc3)nccc2c1Nc1ncccc1-c1ncnc2[nH]cnc12.Cl.Cl.Cl,Activity,[1],100%
same,Activity,[2],97%
same,Activity,[3],86%
same,Activity,[4],100%
same,Activity,[5],47%
same,Activity,[6],98%
same,Activity,[7],18%
same,Activity,[8],96%
same,Activity,[9],99%
same,Activity,[10],84%
same,Activity,[11],100%
same,Activity,[12],100%
same,Activity,[13],100%
same,Activity,[14],65%
same,Activity,[15],100%
same,Activity,[16],94%
same,Activity,[17],100%
same,Activity,[18],40%
same,Activity,[19],92%
same,Activity,[20],100%
same,Activity,[21],86%
same,Activity,[22],78%
same,Activity,[23],17%
same,Activity,[24],100%
same,Activity,[25],92%
same,Activity,[26],100%
same,Activity,[27],83%
same,Activity,[28],90%
same,Activity,[29],100%
same,Activity,[30],86%
same,IC50,[31],1 µM
same,Activity,[32],2.7%
same,Activity,[33],98%
same,Activity,[34],86%
same,Activity,[35],100%
same,Activity,[36],100%
same,Activity,[37],96%
